Our source for the TGI values is PubChem BioAssay (NCI).

Common to all, as to experiment: growth of human tumour cells (NCI), 48 h
For test [1], the system named is SK-MEL-28 melanoma.
Test [2] relates to OVCAR-5 ovarian.
Test [3] relates to MOLT-4 leukemia.
For test [4], the system named is T-47D breast.
The test system of test [5] is RPMI-8226 leukemia.
Test [6] concerns NCI-H23 lung.
Test [7] concerns CCRF-CEM leukemia.
The subject of test [8] is MCF7 breast.
Test [9] concerns HS 578T breast.
The test system of test [10] is HOP-92 NSCLC.
Test [11] has as its system BT-549 breast.
For test [12], the system named is U251 CNS.
Test [13] concerns MDA-MB-435.
Test [14] relates to IGROV1 ovarian.
Test [15] concerns ACHN renal.
Test [16] has as its system MALME-3M melanoma.
For test [17], the system named is SK-MEL-2 melanoma.
Test [18] deals with HCT-15 colon.
The test system of test [19] is SN12C renal.
The subject of test [20] is SR leukemia.

Molecules are shown by their SMILES.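 Test compounds were applied to cells in 96-well plates for 48 hours at 5 doses. TGI is the concentration that stops growth completely.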

Consider `CC(C)(C)C1(O)C=C(O)C(=O)N1NC(=O)c1ccccc1Nc1ccccc1` (stereo unspecified), for which the TGI in test [1] was above 100 µM; in [2], above 100 µM; in [3], 29 µM; in test [4], above 100 µM; in [5], above 100 µM; in test [6], above 100 µM. Besides, the TGI in test [7] was 57.6 µM; in [8] it was above 100 µM; in [9], above 100 µM; in [10] it was above 100 µM; in test [11] it was above 100 µM; in [12], above 100 µM. Also, the TGI in test [13], in test [14], in test [15], in test [16], in test [17] and in test [18] was above 100 µM throughout. The TGI in [19] is above 100 µM.
With `C/C=C1/CN2CCC34c5ccccc5N(C)C23C2CC1C4(C(=O)OC)C(O)O2` (stereo unspecified), the TGI in [1], in [2], in test [3], in test [4], in test [5] and in test [6] was above 100 µM in each case. Also, the TGI in test [7], in [8], in test [9], in [10], in test [11] and in test [12] was above 100 µM in each case. The TGI in [13], in test [14], in test [15], in test [17], in test [18] and in test [19] was above 100 µM each time.
As for `C/C(=N/c1[nH]c(=O)cc2c1C(=O)CC2)N(C)C`, the TGI in test [1], in test [2], in [3], in test [4], in [5] and in test [6] was above 200 µM each time. The TGI in [7], in [8], in test [9], in [10], in [11] and in test [12] was above 200 µM each time. The TGI in test [13], in [14], in [15], in [16], in test [17] and in test [18] was above 200 µM each time. In addition, in test [19], the TGI was above 200 µM.
With `COc1ccc2c(c1)CCN1CCCc3ccc(OC)cc3C21` (stereo unspecified), the TGI in test [1], in test [2], in test [3], in test [4], in test [20] and in [5] was above 100 µM in each case. Moreover, the TGI is above 100 µM in [6]; above 100 µM in [7]; above 100 µM in test [8]; above 100 µM in test [9]; above 100 µM in [10]; 89.3 µM in test [11]. Further, the TGI in test [12], in test [13], in test [14], in [15], in test [17] and in test [18] was above 100 µM each time. This compound also gave a TGI in test [19] above 100 µM.
As to `CC(=O)C1=C(C)N2C(=NC3=C(CCc4ccccc43)C2c2cccc(Br)c2)S1` (stereo unspecified), the TGI in test [1] was above 100 µM; in test [2] it was above 100 µM; in test [4], above 100 µM; in test [5], 53.5 µM; in [6] it was above 100 µM; in test [7], above 100 µM. Also, the TGI in [8], in test [9], in [10], in test [11], in test [12] and in test [13] was above 100 µM throughout. Moreover, the TGI in [14], in test [15], in test [17], in test [18] and in test [19] was above 100 µM throughout.
`NC(=O)CCC(CCC(N)=O)(CCC(N)=O)[N+](=O)[O-]`: the TGI in [2], in [3], in test [4], in [5], in test [6] and in test [8] was above 100 µM each time. Further, the TGI in [9], in [10], in [11], in test [12], in test [13] and in test [14] was above 100 µM in each case. Also, the TGI in [15], in test [16], in [17], in test [18] and in test [19] was above 100 µM each time.
`COc1cc([C@@H]2c3cc4c(cc3[C@@H](OC3OC5COC(C)OC5C(OC(=O)CN5CCN(C)CC5)C3OC(=O)CN3CCN(C)CC3)C3COC(=O)[C@@H]32)OCO4)cc(OC)c1OC(=O)CN1CCN(C)CC1` (stereo partly specified): the TGI in [2] was above 100 µM; in [3] it was 42.1 µM; in [4], above 100 µM; in test [6], above 100 µM; in test [7], 46.6 µM; in [8], above 100 µM. Further, the TGI in [9], in [10], in [11], in [12], in [13] and in test [14] was above 100 µM throughout. The TGI in test [15], in test [16], in [17], in [18] and in [19] was above 100 µM in each case.
Take `O=P(c1ccccc1)(c1ccccc1)c1ccc2c(c1)OCCOCCOCCOCCO2`: the TGI in test [1], in test [3], in test [4], in test [20], in test [5] and in test [6] was above 100 µM each time. For the same compound, the TGI in test [7], in test [8], in test [9], in test [11], in test [13] and in [14] was above 100 µM each time. Moreover, the TGI in test [15], in [16], in test [18] and in test [19] was above 100 µM throughout.
Consider `NCCCCN(CCCN)Cc1ccc2ccccc2c1`, for which the TGI in [1], in test [2], in test [3], in test [4], in test [5] and in test [6] was above 100 µM in each case. Besides, the TGI in [7] is above 100 µM; in [8] it was above 100 µM; in [9], 42.9 µM; in test [10], above 100 µM; in test [11], above 100 µM; in test [12], above 100 µM. In addition, the TGI in test [13] is above 100 µM; in test [14], above 100 µM; in test [15], 53.8 µM; in test [16], above 100 µM; in [18], above 100 µM; in test [19], 46.3 µM.
On to `Cc1cn([C@H]2C[C@@H]3[C@@H](COC(CCl)N3O)O2)c(=O)[nH]c1=O` (stereo partly specified), for which the TGI in test [1], in [2], in test [3], in test [4], in [20] and in test [5] was above 100 µM each time. Also, the TGI in test [7], in [8], in [9], in test [11], in [12] and in test [13] was above 100 µM in each case. Moreover, the TGI in test [14], in test [16], in [17], in test [18] and in test [19] was above 100 µM in each case.
For the compound `CS/C(=N\S(=O)(=O)c1cc(C)c(Cl)cc1Cl)NNc1cnc2ccccc2n1`, the TGI in [1], in [2], in [3], in test [4], in test [6] and in test [7] was above 100 µM throughout. Also, the TGI in test [8], in [9], in [10], in test [11], in test [12] and in [13] was above 100 µM each time. Moreover, the TGI in test [14], in [15], in test [16], in test [18] and in test [19] was above 100 µM throughout.
For the compound `CC(C)(C)OC(=O)CC(NC(=O)OC(C)(C)C)C(=O)NC(C(=O)O)C(O)c1ccccc1` (stereo unspecified), the TGI in test [1], in test [2], in test [3], in test [4], in test [5] and in test [6] was above 100 µM each time. For the same compound, the TGI in test [7], in test [8], in test [9], in [11], in test [12] and in [13] was above 100 µM throughout. The TGI in test [14], in test [15], in [16], in [17] and in test [18] was above 100 µM each time.
